In brackets after ≈: the same amount, converted by molar mass. Values belong to the molecule of their own block, whether it stands above or below them.
Experiments:
[1] = system: HL60 cell line; experiment: Cell killing assay (cytotoxicity) of IQB-CBI dimers, HL60; format: cell-based; settings: Homo sapiens, HL-60, 72 h; HL60 cells; 3-day incubation
Description: (§1) Cytotoxicity of D801, D803, D05, D807, D809, D811, D813, D815 and D817 were tested against AML2 and HL60 cell lines. Cell killing assay was performed after 3-day incubation with various IQB-CBI dimers.

[2] = system: AML2 cell line; experiment: Cell killing assay (cytotoxicity) of IQB-CBI dimers, AML2; format: cell-based; settings: 72 h; AML2 cells; 3-day incubation
Description: as §1

[3] = target: T1, human interleukin 1 receptor accessory protein (IL1RAP) (human, UniProt Q9NPH3 21-570); experiment: flow cytometry (MFI, anti-human APC secondary) on HL-60, EOL1 and SK-MEL-5 cells expressing IL1RAP
T1 construct: The target is carried by human cell lines: EOL1 at high copy number, HL-60 and SK-MEL-5 at low copy number
T1 sequence: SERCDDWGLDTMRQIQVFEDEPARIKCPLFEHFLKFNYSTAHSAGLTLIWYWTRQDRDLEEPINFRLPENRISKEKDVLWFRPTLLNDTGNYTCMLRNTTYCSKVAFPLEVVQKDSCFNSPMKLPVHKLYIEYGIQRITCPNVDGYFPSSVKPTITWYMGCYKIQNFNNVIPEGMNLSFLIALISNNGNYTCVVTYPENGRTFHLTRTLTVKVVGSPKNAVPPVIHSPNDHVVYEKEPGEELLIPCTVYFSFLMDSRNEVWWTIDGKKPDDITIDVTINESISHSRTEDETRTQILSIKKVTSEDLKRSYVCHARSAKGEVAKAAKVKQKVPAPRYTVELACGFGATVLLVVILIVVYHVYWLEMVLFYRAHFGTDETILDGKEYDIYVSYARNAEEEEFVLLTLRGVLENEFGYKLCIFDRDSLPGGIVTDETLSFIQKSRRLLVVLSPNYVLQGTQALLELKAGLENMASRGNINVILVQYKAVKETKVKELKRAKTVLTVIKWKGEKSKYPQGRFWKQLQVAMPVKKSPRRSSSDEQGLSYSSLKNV
Description: FIGS. 15 and 16 show binding, as a function of mean fluorescent intensity, of humanized (hu3G7) or chimeric (Chi3G7) anti-IL1RAP antibody to various cell lines. HL-60 cells (human promyelocytic leukemia cells), EOL1 cells (human eosinophilic leukemia cells) and SK-MEL-5 cells (human melanoma cell line) express IL1RAP, and EOL1 cells do so with high expression. C0 antibody is a non-binding control IgG1. D212 is a composition having the formula: […]
The cells were resuspended in binding buffer (PBS, 2% FBS)) containing 5% NHS (normal human serum) to 2 ×10^6 cells/mL. To 50 µL of cells, 50 µL of primary antibody/ADC was added and incubated at 4° for 30 min. After incubation, cells were wasked with binding buffer 2 times and then resuspended and incubated with second antibody (anti-human APC, 1:400 in the binding buffer) at 4° for 30 min. Cells were washed with binding buffer and resuspended in 200 uL of binding buffer with propidium iodide. Cells were immediately applied to flow cytometry for analysis. Mean fluorescence intensity (MFI) of the stained sample was measured.

Molecule: COc1cc2c(cc1OCCCCCC(=O)N1CC(CCl)c3c1cc(O)c1ccccc31)N=C[C@@H]1Cc3ccccc3CN1C2=O (stereo partly drawn) [D813, (6aS)-3-((6-(1-(chloromethyl)-5-hydroxy-1,2-dihydro-3H-benzo[e]indol-3-yl)-6-oxohexyl)oxy)-2-methoxy-7,12-dihydrobenzo[5,6][1,4]diazepino[1,2-b]isoquinolin-14(6aH)-one]
IC50 [1]: 0.00072 ng/mL (≈ 0.00113 nM)
IC50 [2]: 0.00028 ng/mL (≈ 0.000439 nM)

binding result [3]: binds
B1: humanized, cys-substituted (S156C) anti-IL1RAP antibody 3G7 (hu3G7), tested as antibody and as IQB-CBI antibody-drug conjugates (antibody, human IgG1, kappa, V domains shown)
VH: EVQLVQSGAEVKKPGASVKISCKASGYTFTNYGMHWVRQAPGQGLEWMGWINTYTGEPTYAQKFQGRFTFTLDTSTSTAYLEIRSLRSDDTAVYYCARYYGNFDYWGQGTLLTVSS
VL: EIVMTQSPATLSVSPGERATLSCRASQSISNNLHWYQQKPGQAPRLLIYYASQSISGIPARFSGSGSGTEFTLTISSLQSEDFAVYYCQQSHNWPHTFGQGTKLEIKR
modifications: IQB-CBI dimer linker-payload (D816, D818, D820, D822, D824, D826 or D828) attached by maleimide to the substituted cysteine (S156C); DAR 1.7-2.0
notes: also called 3G7-S156C-CYSMAB; hu3G7-IQB-CBI

binding result [3]: binds
B2: chimeric, cys-substituted (S156C) anti-IL1RAP antibody 3G7 (Chi3G7; human constant domain, mouse variable domain), tested as antibody and as IQB-CBI … (antibody, V domains shown)
VH: QIQLVQSGPELKKPGETVKISCKASGYTFTNYGMHWVKQSPGEGLKWMGWINTYTGEPTYADDFKGRFGFSLETSASSAYLQINDLKNEDMATYFCARYYGNFDYWGQGTTLTVSS
VL: DIVLTQSPATLSVTPGDSVSLSCRASQSISNNLHWYQQKSHESPRLLIKYASQSISGIPSRFSGSGSGTDFTLSINSVETEDFGVYFCQQSHNWPHTFGGGTKLEIKR
modifications: IQB-CBI dimer linker-payload (D816, D818, D820, D822, D824, D826 or D828) on the substituted cysteine S156C of the heavy chain constant region (constant region sequence not given)
notes: also called Chi3G7-(IQB-CBI) ADC; Chi3G7-CLT-(IQB-CBI) ADC

Source: patent publication US10350218B2, “Isoquinolidinobenzodiazepine (IQB)-1(chloromethyl)-2,3-dihydro-1H-benzo[e]indole (CBI) dimers” (priority 2016, dated 2019)
